What all share (format): biochemical, yeast (Saccharomyces cerevisae)
Assay [1] addresses T1, yeast activated 20S proteasome (CT-L activity) (Saccharomyces cerevisiae, UniProt P23724+P30656).
T1 construct: The yeast (Saccharomyces cerevisae) 26S and 20S proteasomes were purified according to the protocol described in; made in house; host or cells: Saccharomyces cerevisiae (native complex purified from yeast by the cited Leggett et al. 2002 protocol)
The experiment in a line: Inhibition of the CT-L (chymotrypsin-like) peptidase activity of the activated 20S proteasome, substrate Suc-LLVY-amc. Conditions: for Increase of the inhibitory capacity compared with the unmodified peptide (factor): lipopeptide versus corresponding peptide, CT-L activity of activated 20S proteasome; for Inhibitory effect of the lipopeptides on the CT-L activity: yeast activated 20S proteasome, after treatment with 35 μM of lipopeptide (17.5 μM for C18/TVTYKF). The protocol: (§1) The yeast (Saccharomyces cerevisae) 26S and 20S proteasomes were purified according to the protocol described in: LEGGETT et al. (2002) Molecular Cell, 10, pp 495-507.
(§2) The peptidase activities were determined using the fluorogenic substrates Suc-LLVY-amc (CT-L), Z-LLE-βNA (PA) and Boc-LRR-amc (T-L), provided by the company Bachem (Voisins-le-Bretonneux, France).
(§3) The peptidase activities of the yeast and Xenopus 26S proteasomes and those of the yeast 20S proteasome, latent and activated, were determined under the conditions described in Table II.
(§4) The compounds studied are solubilized in the buffer (peptides, pseudopeptides) or in DMSO (lipopeptides, photoactivatable peptides). The enzyme is preincubated (15 min at 30° C.) in the corresponding buffer (Table II), in the presence of the inhibitor. For the cases where the inhibitor is solubilized in DMSO (lipopeptides, photoactivatable peptides), the control without inhibitor contains an amount of DMSO identical to that of the assays with inhibitor (3.5% v/v). The reaction is triggered by adding the substrate. It is continuously monitored for 30 min at 30° C. The initial rates of the assays with inhibitors (calculated from the experimental points) are compared with those of the controls. The results presented were obtained by calculating the mean of at least two independent assays. The variability is less than 10%.
(§5) The IC50 parameter corresponds to the concentration of inhibitor that results in a 50% loss of enzymatic activity.
(§6) The enzyme is preincubated in the presence of increasing concentrations of inhibitor. The reaction is triggered by adding the substrate (see paragraph “Detection and study of the inhibitory effects”). The percentage inhibition is calculated from equation 1.
(§7) The experimental points describe the evolution of the inhibitory effect of the compound studied as a function of its concentration. As a general rule, they fit with the curve described by equation 2 in which [I] is the concentration of inhibitor
The mechanism of inhibition is determined by tracing the curve of the evolution of the V0/Vi ratio as a function of the concentration of inhibitor.

For assay [2], the target named is T2, activated 20S proteasome (PA activity) (Saccharomyces cerevisiae, UniProt P25043+P38624).
T2 construct: The yeast (Saccharomyces cerevisae) 26S and 20S proteasomes were purified according to the protocol described in; made in house; host or cells: Saccharomyces cerevisiae (native complex purified from yeast by the cited Leggett et al. 2002 protocol)
The assay can be described thus: Inhibition of the post-acid (PA) peptidase activity of the activated 20S proteasome, substrate Z-LLE-βNA. The protocol:
as §1, §2, §3, §4, §5, §6, §7

The target of assay [3] is T3, latent 20S proteasome (CT-L activity) (Saccharomyces cerevisiae, UniProt P23724+P30656).
T3 construct: The yeast (Saccharomyces cerevisae) 26S and 20S proteasomes were purified according to the protocol described in; made in house; host or cells: Saccharomyces cerevisiae (native complex purified from yeast by the cited Leggett et al. 2002 protocol)
The assay can be described thus: Activating effect on the CT-L activity of the latent 20S proteasome (activation factor fa). More on the design: key: fa = initial rate with compound / initial rate of control (Va/V0). Conditions: fa = Va/V0, concentration not given. The protocol:
as §1, §2, §3
(§8) The compounds studied are solubilized in the buffer or in DMSO. The enzyme is preincubated (15 minutes at 30° C.) in the corresponding buffer (Table II), in the presence of the molecule to be tested. When the molecule is solubilized in DMSO, the control (no addition molecule to be tested) contains an amount of DMSO identical to that of the assays(3.5% v/v). The reaction is triggered by adding the substrate. It is continuously monitored for 30 minutes at 30° C. The results presented were obtained by calculating the mean of at least two independent assays. An activation is characterized by an activity, after treatment with the molecule tested, of greater than 100%. The variability is less than 10%. The results are expressed by means of an activation factor fa equal to the ratio of the initial rate Va in the presence of the compound tested to the initial rate of the control V0.

Assay [4] addresses T4, latent 20S proteasome (T-L activity) (Saccharomyces cerevisiae, UniProt P25043+P25451).
T4 construct: The yeast (Saccharomyces cerevisae) 26S and 20S proteasomes were purified according to the protocol described in; made in house; host or cells: Saccharomyces cerevisiae (native complex purified from yeast by the cited Leggett et al. 2002 protocol)
The assay can be described thus: Activating effect on the T-L activity of the latent 20S proteasome (activation factor fa). Conditions: fa = Va/V0, concentration not given. The protocol:
as §1, §2, §3, §8

Where [5] appears, read: activated 20S proteasome, read-out: CT-L activity: IC50.

Where two headings read alike, the source gives them in different places. Square brackets hold non-standard residues; d marks the D form. Ends that are not written are not given here. Peptide text beside a SMILES is read from it. * marks the point of attachment. Biotin = O=C1N[C@H]2[C@H](CS[C@H]2CCCCC(=O)*)N1; Bpa = N[C@@H](Cc1ccc(C(=O)c2ccccc2)cc1)C(=O)O; Decanoyl = CCCCCCCCCC(=O)*; Octanoyl = CCCCCCCC(=O)*; Ava = NCCCCC(=O)O

Data on 15 compounds can be found in US20080076718A1, “Novel Proteasome Modulators” (priority 2003, published 2008).

As a reminder, the IC50 is the concentration at which inhibition is half-maximal. As a reminder, the inhibition is how much of the control response was suppressed.

With `CCCCCCCC(=O)N[C@H](C(=O)N[C@H](C(=O)N[C@H](C(=O)N[C@@H](Cc1ccc(O)cc1)C(=O)N[C@@H](CCCCN)C(=O)N[C@@H](Cc1ccccc1)C(=O)O)[C@@H](C)O)C(C)C)[C@@H](C)O` [C8/TVTYKF, CH3—(CH2)6—CO-TVTYKF] (Octanoyl-TVTYKF-OH; C-terminus assumed), the IC50 in assay [1] (setting [5]) was ~35 µM. In assay [1], the “Increase of the inhibitory capacity compared with the unmodified peptide (factor)” value is reported as 17 and the “Inhibitory effect of the lipopeptides on the CT-L activity” value (“Inhibitory effect of the lipopeptides” below) is listed as 50%.
For `CCCCCCCCCC(=O)N[C@H](C(=O)N[C@H](C(=O)N[C@H](C(=O)N[C@@H](Cc1ccccc1)C(=O)N[C@@H](CCCCN)C(=O)N[C@@H](Cc1ccccc1)C(=O)O)[C@@H](C)O)C(C)C)[C@@H](C)O` [C10/TVTFKF, CH3—(CH2)8—CO-TVTFKF] (Decanoyl-TVTFKF-OH; C-terminus assumed) the same measures were ~35 µM, 6.5 and 42%.
In the case of `CC(C)C[C@@H](CNCC(=O)N1CCC[C@H]1C(=O)N[C@@H](CO)C(=O)O)NC(=O)[C@H](CC(N)=O)NC(=O)[C@@H](N)[C@@H](C)O` [Pseudopeptide 1, TNL-ψ[CH2—NH]-GPS], the “Mechanism of inhibition (kinetic analysis, V0/Vi versus inhibitor concentration)” value in assay [1] (activated 20S proteasome) was “reacts with the catalytic sites and the regulatory site(s)”. Also, the 50% inhibitory concentration (IC50) in assay [1] (estimated values, activity type not named at the place, peptide tested under conditions where its hydrolysis is negligible, read-out: IC50 (activated 20S proteasome inhibitor)) was 380 µM. Also, testing at 500 µM in assay [2] (inhibitor 500 μM) gave an inhibition of 63%.
Regarding `CC(C)[C@H](NC(=O)[C@@H](NC(=O)CCCCNC(=O)CCCC[C@@H]1SC[C@@H]2NC(=O)N[C@@H]21)[C@@H](C)O)C(=O)N[C@H](C(=O)N[C@@H](Cc1ccc(C(=O)c2ccccc2)cc1)C(=O)N[C@@H](CCCCN)C(=O)N[C@@H](Cc1ccccc1)C(=O)O)[C@@H](C)O` [Pseudopeptide 3, Biot-Ava-TVT-Bpa-KF] ({Biotin-Ava}-TVT[Bpa]KF-OH; C-terminus assumed), in assay [1] (enzyme form and activity not stated at the place, read-out: IC50), the IC50 amounted to 32 µM.
Turning to Ac-TNL-ψ[CH2—NH]-GPS [Pseudopeptide 2], the “Effectiveness relative to pseudopeptide 1” value in assay [1] (activated 20S proteasome) was “half as effective as 1”. Besides, in assay [2] (inhibitor 1 mM), the “Inhibition of the post-acid activity PA” value worked out at 28%.
For CH3—(CH2)12—CO-TVTYKF [C14/TVTYKF], the “Inhibitory effect of the lipopeptides” value in assay [1] is 0%. Besides, the “fa CT-L activity” value in assay [3] is reported as 2.
For CH3—(CH2)14—CO-TITFDY [C16/TITFDY] the same measures were 20% and 3.
Consider CH3—(CH2)14—CO-TVTYKF, for which, in assay [3], the “fa CT-L activity” value came to 2.
In the case of CH3—(CH2)16—CO-TITFDY [C18/TITFDY], the “Inhibitory effect of the lipopeptides” value in assay [1] worked out at 34%. In addition, in assay [3], the “fa CT-L activity” value was determined as 6. Further, the “fa T-L activity” value in assay [4] came to 1.2.
For CH3—(CH2)16—CO-TVTYKF, in assay [3], the “fa CT-L activity” value is recorded as 3.2.
For the compound TITFDY [reference compound], the “fa CT-L activity” value in assay [3] is listed as 5. In addition, the “fa T-L activity” value in assay [4] is recorded as 3.
As to TITYDF, the “fa T-L activity” value in assay [4] was 2.5.
With TITYEY [reference compound], in assay [3], the “fa CT-L activity” value is reported as 2.
As for TITYKF [TITYKF, reference compound], in assay [1] (activated 20S proteasome), the “Mechanism of inhibition (kinetic analysis, V0/Vi versus inhibitor concentration)” value is recorded as “parabolic kinetics”. The IC50 was found to be 260 µM in assay [1] (setting [5]) and 336 µM in assay [2].
In the case of TVTFKF [TVTFKF, reference compound], in assay [1] (activated 20S proteasome), the “Mechanism of inhibition (kinetic analysis, V0/Vi versus inhibitor concentration)” value is reported as “parabolic kinetics”. Also, the figures for the 50% inhibitory concentration (IC50) in assay [1] (setting [5]) and in assay [2] were 229 µM and 210 µM, respectively. Besides, the “fa CT-L activity” value in assay [3] is listed as 2.3. For the same compound, in assay [4], the “fa T-L activity” value is given as 1.7.
